Experimental data published in ChEMBL document CHEMBL5653631, “A Potent and Selective ULK1 Inhibitor Suppresses Autophagy and Sensitizes Cancer Cells to Nutrient Stress” (iScience, 2018).
Values belong to the compound of their own block, whether it stands above or below them.

Assays:
[1] = target: Tyrosine-protein kinase Fyn (Homo sapiens) (UniProt P06241); test: Inhibition of human recombinant FYN at 500 nM in presence of ATP by radiometric assay relative to control
[2] = target: T1, Mitogen-activated protein kinase 13 (Homo sapiens) (UniProt O15264); test: Inhibition of human recombinant p38delta at 500 nM in presence of ATP by radiometric assay relative to control
T1 sequence (whole entry): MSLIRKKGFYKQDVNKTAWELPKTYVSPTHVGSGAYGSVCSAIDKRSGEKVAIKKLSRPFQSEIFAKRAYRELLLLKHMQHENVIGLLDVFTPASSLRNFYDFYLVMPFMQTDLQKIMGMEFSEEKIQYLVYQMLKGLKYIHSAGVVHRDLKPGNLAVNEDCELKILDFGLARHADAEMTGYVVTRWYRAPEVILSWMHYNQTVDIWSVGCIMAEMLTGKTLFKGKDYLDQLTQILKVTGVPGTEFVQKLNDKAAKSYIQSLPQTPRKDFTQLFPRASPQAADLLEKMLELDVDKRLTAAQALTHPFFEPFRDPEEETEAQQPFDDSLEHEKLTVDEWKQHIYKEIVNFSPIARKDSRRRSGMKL

[3] = target: T2, Mitogen-activated protein kinase kinase kinase 5 (Homo sapiens) (UniProt Q99683); test: Inhibition of human recombinant MAP3K5 at 40 nM in presence of ATP by radiometric assay relative to control
T2 sequence (whole entry): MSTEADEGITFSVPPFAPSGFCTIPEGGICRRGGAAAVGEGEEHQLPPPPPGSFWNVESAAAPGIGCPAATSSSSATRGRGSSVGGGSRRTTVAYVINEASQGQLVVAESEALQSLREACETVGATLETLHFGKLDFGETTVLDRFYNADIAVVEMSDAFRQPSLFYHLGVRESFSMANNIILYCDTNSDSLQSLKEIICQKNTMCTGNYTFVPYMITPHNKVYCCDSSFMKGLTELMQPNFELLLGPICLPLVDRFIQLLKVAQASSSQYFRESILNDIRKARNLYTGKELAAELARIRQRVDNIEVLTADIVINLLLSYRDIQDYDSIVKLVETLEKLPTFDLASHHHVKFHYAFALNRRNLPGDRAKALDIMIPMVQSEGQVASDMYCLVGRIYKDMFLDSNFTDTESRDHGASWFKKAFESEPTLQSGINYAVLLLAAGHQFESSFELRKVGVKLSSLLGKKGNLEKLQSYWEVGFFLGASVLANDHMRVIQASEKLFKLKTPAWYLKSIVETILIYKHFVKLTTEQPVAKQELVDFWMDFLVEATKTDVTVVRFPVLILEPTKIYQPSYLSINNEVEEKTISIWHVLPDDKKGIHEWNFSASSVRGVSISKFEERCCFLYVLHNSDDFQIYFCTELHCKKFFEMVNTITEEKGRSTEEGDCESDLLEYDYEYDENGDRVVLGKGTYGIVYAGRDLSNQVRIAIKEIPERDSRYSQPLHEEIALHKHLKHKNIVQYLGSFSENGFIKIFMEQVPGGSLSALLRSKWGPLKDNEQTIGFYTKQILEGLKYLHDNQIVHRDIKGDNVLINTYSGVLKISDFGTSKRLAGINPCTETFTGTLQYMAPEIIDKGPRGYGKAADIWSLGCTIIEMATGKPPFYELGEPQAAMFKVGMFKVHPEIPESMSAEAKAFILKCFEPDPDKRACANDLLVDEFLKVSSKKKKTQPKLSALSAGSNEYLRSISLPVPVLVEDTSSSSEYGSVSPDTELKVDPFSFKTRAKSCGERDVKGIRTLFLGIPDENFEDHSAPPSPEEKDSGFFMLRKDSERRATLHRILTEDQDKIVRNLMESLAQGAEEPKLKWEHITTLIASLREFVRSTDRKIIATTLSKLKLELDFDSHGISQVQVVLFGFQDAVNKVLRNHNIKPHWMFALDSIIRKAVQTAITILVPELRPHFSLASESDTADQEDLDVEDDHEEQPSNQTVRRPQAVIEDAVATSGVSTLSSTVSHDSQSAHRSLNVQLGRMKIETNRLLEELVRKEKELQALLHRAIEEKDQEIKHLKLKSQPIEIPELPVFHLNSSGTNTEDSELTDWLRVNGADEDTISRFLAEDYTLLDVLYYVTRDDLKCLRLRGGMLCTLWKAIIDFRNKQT

[4] = target: Mitogen-activated protein kinase kinase kinase kinase 4 (Homo sapiens) (UniProt O95819); test: Inhibition of human recombinant HGK at 40 nM in presence of ATP by radiometric assay relative to control
[5] = target: T3, Ephrin type-A receptor 3 (Homo sapiens) (UniProt P29320); test: Inhibition of human recombinant EphA3 at 40 nM related to control ULK1
T3 sequence (whole entry): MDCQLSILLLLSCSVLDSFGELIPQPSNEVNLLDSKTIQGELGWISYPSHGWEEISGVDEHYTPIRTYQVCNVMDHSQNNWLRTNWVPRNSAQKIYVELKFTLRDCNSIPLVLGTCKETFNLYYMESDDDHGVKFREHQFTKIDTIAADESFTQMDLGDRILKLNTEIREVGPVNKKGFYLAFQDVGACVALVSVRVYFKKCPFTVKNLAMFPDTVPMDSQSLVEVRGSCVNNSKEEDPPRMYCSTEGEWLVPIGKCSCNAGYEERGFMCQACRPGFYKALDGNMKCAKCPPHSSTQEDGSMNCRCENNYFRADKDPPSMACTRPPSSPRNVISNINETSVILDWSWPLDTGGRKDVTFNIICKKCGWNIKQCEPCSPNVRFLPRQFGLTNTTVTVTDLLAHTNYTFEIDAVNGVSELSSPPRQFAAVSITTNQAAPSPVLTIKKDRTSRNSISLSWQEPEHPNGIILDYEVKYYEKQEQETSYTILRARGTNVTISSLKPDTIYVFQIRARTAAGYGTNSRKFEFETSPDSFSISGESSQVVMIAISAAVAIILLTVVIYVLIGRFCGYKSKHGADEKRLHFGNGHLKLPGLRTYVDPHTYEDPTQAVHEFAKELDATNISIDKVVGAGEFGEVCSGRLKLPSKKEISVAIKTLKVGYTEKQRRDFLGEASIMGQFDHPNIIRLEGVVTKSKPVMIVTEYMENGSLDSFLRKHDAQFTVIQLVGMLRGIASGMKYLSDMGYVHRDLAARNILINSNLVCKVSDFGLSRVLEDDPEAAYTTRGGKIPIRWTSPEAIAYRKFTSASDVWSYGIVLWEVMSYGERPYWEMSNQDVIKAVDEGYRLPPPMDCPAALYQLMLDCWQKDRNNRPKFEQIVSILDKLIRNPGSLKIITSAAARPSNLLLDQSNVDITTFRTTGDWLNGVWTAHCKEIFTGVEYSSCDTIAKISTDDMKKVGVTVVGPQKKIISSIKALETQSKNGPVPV

[6] = target: Cyclin-dependent kinase 6 (Homo sapiens) (UniProt Q00534); test: Inhibition of human recombinant CDK6 at 15 nM in presence of ATP by radiometric assay relative to control
[7] = target: T1, Mitogen-activated protein kinase 13 (Homo sapiens); test: Inhibition of human recombinant p38delta at 15 nM related to control ULK1

Tyrosine-protein kinase Fyn (Homo sapiens), sequence (P06241 2-537 limits assumed): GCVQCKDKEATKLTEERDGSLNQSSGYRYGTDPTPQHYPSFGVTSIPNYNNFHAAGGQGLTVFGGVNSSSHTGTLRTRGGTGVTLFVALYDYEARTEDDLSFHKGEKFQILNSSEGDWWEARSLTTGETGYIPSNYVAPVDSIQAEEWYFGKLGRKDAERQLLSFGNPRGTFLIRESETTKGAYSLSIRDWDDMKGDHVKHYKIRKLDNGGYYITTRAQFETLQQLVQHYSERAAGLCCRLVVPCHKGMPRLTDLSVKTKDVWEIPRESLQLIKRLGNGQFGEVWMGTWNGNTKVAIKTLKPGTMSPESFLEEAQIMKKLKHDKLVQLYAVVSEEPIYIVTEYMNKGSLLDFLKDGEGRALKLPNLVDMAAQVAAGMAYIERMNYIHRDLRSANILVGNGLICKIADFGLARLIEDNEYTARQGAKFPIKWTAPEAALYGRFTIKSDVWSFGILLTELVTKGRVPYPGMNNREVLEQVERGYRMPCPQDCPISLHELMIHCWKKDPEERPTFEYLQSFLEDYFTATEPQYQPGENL
Mitogen-activated protein kinase kinase kinase kinase 4 (Homo sapiens), sequence (O95819 2-1239 limits assumed): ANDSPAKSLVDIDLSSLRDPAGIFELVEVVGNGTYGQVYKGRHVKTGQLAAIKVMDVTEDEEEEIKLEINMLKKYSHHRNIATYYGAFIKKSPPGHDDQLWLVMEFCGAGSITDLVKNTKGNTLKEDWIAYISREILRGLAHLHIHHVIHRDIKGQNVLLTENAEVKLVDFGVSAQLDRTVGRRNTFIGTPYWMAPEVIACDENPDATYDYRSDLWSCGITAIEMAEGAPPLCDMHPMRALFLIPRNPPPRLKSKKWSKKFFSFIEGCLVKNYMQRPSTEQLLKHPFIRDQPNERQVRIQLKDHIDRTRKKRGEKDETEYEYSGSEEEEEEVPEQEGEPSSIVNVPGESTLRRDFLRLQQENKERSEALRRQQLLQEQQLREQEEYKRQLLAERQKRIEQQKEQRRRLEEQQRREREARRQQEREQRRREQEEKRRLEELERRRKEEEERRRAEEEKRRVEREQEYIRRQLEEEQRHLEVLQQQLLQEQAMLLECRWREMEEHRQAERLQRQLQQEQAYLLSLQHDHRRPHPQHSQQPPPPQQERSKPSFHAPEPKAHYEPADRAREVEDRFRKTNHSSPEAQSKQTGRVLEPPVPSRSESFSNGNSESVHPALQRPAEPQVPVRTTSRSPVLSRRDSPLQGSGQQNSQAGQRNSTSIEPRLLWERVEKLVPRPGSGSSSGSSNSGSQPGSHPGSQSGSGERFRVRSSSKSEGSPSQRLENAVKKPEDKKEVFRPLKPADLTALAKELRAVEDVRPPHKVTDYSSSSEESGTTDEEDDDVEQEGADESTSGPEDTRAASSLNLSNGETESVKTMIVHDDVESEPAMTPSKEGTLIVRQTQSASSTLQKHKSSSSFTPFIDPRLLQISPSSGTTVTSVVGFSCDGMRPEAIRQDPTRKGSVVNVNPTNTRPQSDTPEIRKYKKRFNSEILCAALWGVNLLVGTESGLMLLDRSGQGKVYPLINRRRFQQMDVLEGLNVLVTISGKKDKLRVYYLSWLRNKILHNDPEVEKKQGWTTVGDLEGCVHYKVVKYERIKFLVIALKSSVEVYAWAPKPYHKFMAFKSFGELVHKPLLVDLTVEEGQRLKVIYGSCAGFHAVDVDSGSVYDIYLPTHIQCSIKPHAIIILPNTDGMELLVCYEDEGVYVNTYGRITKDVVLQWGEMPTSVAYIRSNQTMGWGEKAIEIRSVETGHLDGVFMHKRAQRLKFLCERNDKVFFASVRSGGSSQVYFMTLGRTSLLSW
Cyclin-dependent kinase 6 (Homo sapiens), sequence (Q00534 whole entry): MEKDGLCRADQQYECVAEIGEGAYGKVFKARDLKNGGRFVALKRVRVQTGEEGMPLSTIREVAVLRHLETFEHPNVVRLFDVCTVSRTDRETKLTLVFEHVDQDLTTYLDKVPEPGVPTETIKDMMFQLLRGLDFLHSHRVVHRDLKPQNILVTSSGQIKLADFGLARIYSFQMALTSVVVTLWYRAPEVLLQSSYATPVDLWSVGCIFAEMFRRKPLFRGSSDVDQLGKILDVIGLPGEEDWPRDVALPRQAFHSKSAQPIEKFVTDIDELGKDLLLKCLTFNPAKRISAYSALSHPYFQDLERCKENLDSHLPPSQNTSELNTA

inhibition [1]: 19% | inhibition [2]: 19%
SMILES: CNC(=O)c1ccccc1Oc1nc(Nc2cc(OC)c(OC)c(OC)c2)ncc1Br

inhibition [3]: 0% | inhibition [4]: 0% | fold change (FC) [5]: 0.21
SMILES: O=C(N[C@@H](C1CC1)C(F)(F)F)c1cc(-c2cnn3cc(-c4ccc(F)cc4)cnc23)cs1

inhibition [6]: 8% | fold change (FC) [7]: 0.07
SMILES: CC(C)[C@H](NC(=O)c1cc(-c2cnn3cc(-c4ccc(OCCN5CCCCC5)cc4)cnc23)cs1)C(F)(F)F
